Assay results as given in US20230227547A1, “ANTIBODY-PAYLOAD CONJUGATES WITH ENHANCED DELIVERY DOMAIN AND USES THEREOF” (IPROGEN BIOTECH INC., priority 2019, published 2023).

Key:
T47D cells [1] = experiment: Anti-HER2 mAb delivery efficiency using LL37-derived peptide constructs; type: cell-based, human; conditions: peptide conjugated to anti-HER2 mAb light chain, 100 nM Ab, Z-GFP (PEP#6, 35-43) or Goat anti-human IgG-AlexaFluor 488 (PEP#6, 47-94) fluorescence microscopy
Method: (§1) LL37 and LL37-derived peptides were produced synthetically with two additional N-terminal glycine residues (e.g. as shown in SEQ ID NO:2 compared to SEQ ID NO: 1) to enable the sortase reaction. The LL37-derived peptides (PEP#35 to #43, SEQ ID NOs: 13-21) were all dissolved at 10 mg/ml in phosphate buffer saline (PBS) at room temperature, sterile-filtered, and stored at -20° C. freezer. PEP#48 (SEQ ID: 74), PEP#49 (SEQ ID No: 75), and PEP#60 (SEQ ID NO: 105) were dissolved in 20% (v/v) acetonitrile in PBS. PEP#47 (SEQ ID NO: 96), PEP#86 (SEQ ID NO: 78), PEP#98 (SEQ ID NO: 79), PEP#99 (SEQ ID NO: 80), PEP#102 (SEQ ID NO: 82), and PEP#104 (SEQ ID NO: 84) were dissolved in DMSO. PEP#50 (SEQ ID No: 76), PEP#51 (SEQ ID No: 97), PEP#55 (SEQ ID No: 77), PEP#58 (SEQ ID No: 103), PEP#59 (SEQ ID No: 104), PEP#61 (SEQ ID No: 106), PEP#62 (SEQ ID No: 107), PEP#63 (SEQ ID No: 108), PEP#64 (SEQ ID No: 109), PEP#66 (SEQ ID No: 110), and PEP#94 (SEQ ID No: 35) were all dissolved in PBS. […] The reaction was incubated inside a 37° C. incubator for 16 hours, and then EDTA (pH 7.5) was added to 10 mM in the reaction mixture to chelate calcium and stop the reaction.
Delivery assay: The following delivery assay method was used on the anti-HER2 mAbs conjugated to the PEP#6, #35, #36, #37, #38, #39, #40, #41, #42, and #43 described in Table 7. […] The plates were then removed from the incubator, and the culturing media was removed from the adherent cells. The adherent cells were washed gently with an equal volume of ice-cold PBS. Then, the PBS wash was replaced 250 µl of fresh PBS for fluorescence microscope imaging.
At the end of incubation, the adherent target cells were washed twice with ice-cold PBS, fixed with 2% (w/v) formaldehyde in PBS at room temperature for 15 minutes, and washed twice with PBS at room temperature. The fixed adherent target cells were then permeabilized with 0.05% (v/v) Tween-20 in PBS at room temperature for 15 minutes. The permeabilized cells were then incubated with 5% (v/v) FBS, 0.05% (v/v) Tween-20 in PBS at 37 degree Celsius incubator for 30 minutes. The secondary antibody, Goat anti-human IgG-AlexaFluor 488, was added to 5 ug/ml in 5% (v/v) FBS, 0.05% (v/v) Tween-20 in PBS, and incubated with the treated target cells at 37 degree Celsius incubator for 30 minutes. After incubation, the labelled cells were washed twice with PBS, and stored in storage buffer [5% (v/v) FBS in PBS] at 4 degree Celsius until fluorescence microscope imaging. The delivery of mAb and mAb-LL37-derived peptides were determined qualitatively by estimating the green fluorescence intensity emitted from the AlexFluor488-labelled secondary antibody bound to mAb or mAb-LL37-derived peptides.

T47D cells [2] = experiment: Anti-HER2 mAb delivery efficiency using antimicrobial peptides; type: cell-based, human; conditions: peptide conjugated to anti-HER2 mAb, 100 nM + 100 nM Z-GFP, 4 hours
Method: as §1
The plates were then removed from the incubator, and the culturing media was removed from the adherent cells. […] Then, the PBS wash was replaced 250 µl of fresh PBS for fluorescence microscope imaging.

Q: Which results are given for “LLGDFFRKSKEKIGKEFKRIVQRIKDFLRNLVPRTES [PEP#6 (LL37), two N-terminal glycines added for conjugation]”?
A: Delivery efficiency (T47D cells [1]): +++ (Same as LL37); Delivery efficiency (T47D cells [2]): +++ (Same as LL37)
